Source: PubChem BioAssay AID2060489 (Molecular Pharmacology Branch, DTP, NCI, 2025)

System: 922993-354-T-J3-PDC complex spheroids, viability
Experiment: Anticancer human tumor 922993-354-T-J3-PDC patient-derived endometrial carcinoma cell line growth inhibition [GQUAD]
Settings: for IC50: curve of first compound; for viability, T/C: stronger effect = lower value
Summary of the method: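 Viability of tumor cells grown as complex spheroids with endothelial and stromal cells, exposed to drug combinations. Top concentration at or near clinical Cmax (else 10 microM), diluted in half-log increments.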

[1] = second compound 0.0316 µM, first compound 0.0316 µM
[2] = second compound 0.0316 µM, first compound 0.1 µM
[3] = second compound 0.0316 µM, first compound 0.316 µM
[4] = second compound 0.0316 µM, first compound 1 µM
[5] = second compound 0.0316 µM, first compound 3.16 µM
[6] = second compound 0.0316 µM, first compound 10 µM
[7] = second compound 0.1 µM, first compound 0.0316 µM
[8] = second compound 0.1 µM, first compound 0.1 µM
[9] = second compound 0.1 µM, first compound 0.316 µM
[10] = second compound 0.1 µM, first compound 1 µM
[11] = second compound 0.1 µM, first compound 3.16 µM
[12] = second compound 0.1 µM, first compound 10 µM
[13] = second compound 0.316 µM, first compound 0.0316 µM
[14] = second compound 0.316 µM, first compound 0.1 µM
[15] = second compound 0.316 µM, first compound 0.316 µM
[16] = second compound 0.316 µM, first compound 1 µM
[17] = second compound 0.316 µM, first compound 3.16 µM
[18] = second compound 0.316 µM, first compound 10 µM
[19] = second compound 1 µM, first compound 0.0316 µM
[20] = second compound 1 µM, first compound 0.1 µM
[21] = second compound 1 µM, first compound 0.316 µM
[22] = second compound 1 µM, first compound 1 µM
[23] = second compound 1 µM, first compound 3.16 µM
[24] = second compound 1 µM, first compound 10 µM
[25] = second compound 3.16 µM, first compound 0.0316 µM
[26] = second compound 3.16 µM, first compound 0.1 µM
[27] = second compound 3.16 µM, first compound 0.316 µM
[28] = second compound 3.16 µM, first compound 1 µM
[29] = second compound 3.16 µM, first compound 3.16 µM
[30] = second compound 3.16 µM, first compound 10 µM
[31] = second compound 10 µM, first compound 0.0316 µM
[32] = second compound 10 µM, first compound 0.1 µM
[33] = second compound 10 µM, first compound 0.316 µM
[34] = second compound 10 µM, first compound 1 µM
[35] = second compound 10 µM, first compound 3.16 µM
[36] = second compound 10 µM, first compound 10 µM
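Further: spheroids exposed to compounds for seven days.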
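Wherever viability, T/C is given: 100% = DMSO vehicle control viability.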

## Nc1ccn(C2OC(CO)C(O)C2(F)F)c(=O)n1 (stereo not drawn) + Cc1[nH]c2ccc(F)cc2c1-c1nc2c3cccnc3c3ncccc3c2[nH]1
Second compound 0.0316 µM
  IC50: < 31.6 nM
Second compound 0.1 µM
  IC50: < 31.6 nM
Second compound 0.316 µM
  IC50: < 31.6 nM
Second compound 1 µM
  IC50: < 31.6 nM
Second compound 3.16 µM
  IC50: < 31.6 nM
Second compound 10 µM
  IC50: < 31.6 nM
[1]
  viability, T/C: 25.1%
[2]
  viability, T/C: 27.1%
[3]
  viability, T/C: 25.2%
[4]
  viability, T/C: 18.3%
[5]
  viability, T/C: 22.5%
[6]
  viability, T/C: 21.7%
[7]
  viability, T/C: 25.6%
[8]
  viability, T/C: 23.2%
[9]
  viability, T/C: 23.9%
[10]
  viability, T/C: 21.1%
[11]
  viability, T/C: 23%
[12]
  viability, T/C: 22.9%
[13]
  viability, T/C: 25.1%
[14]
  viability, T/C: 23.4%
[15]
  viability, T/C: 24%
[16]
  viability, T/C: 19.2%
[17]
  viability, T/C: 22.7%
[18]
  viability, T/C: 22.1%
[19]
  viability, T/C: 22.4%
[20]
  viability, T/C: 25.7%
[21]
  viability, T/C: 20.1%
[22]
  viability, T/C: 26.4%
[23]
  viability, T/C: 24.2%
[24]
  viability, T/C: 21.7%
[25]
  viability, T/C: 22.6%
[26]
  viability, T/C: 29.2%
[27]
  viability, T/C: 23.3%
[28]
  viability, T/C: 20.4%
[29]
  viability, T/C: 27%
[30]
  viability, T/C: 18.3%
[31]
  viability, T/C: 27.6%
[32]
  viability, T/C: 22.3%
[33]
  viability, T/C: 27%
[34]
  viability, T/C: 23.4%
[35]
  viability, T/C: 26.3%
[36]
  viability, T/C: 26.3%

## Cc1[nH]c2ccccc2c1CCNCc1ccc(/C=C/C(=O)NO)cc1 + Cc1cnc(CNC(=O)c2c(=O)c3ccc(N4CCCN(C)CC4)nc3n3c2sc2ccccc23)cn1
Second compound 0.0316 µM
  IC50: > 316 nM
Second compound 0.1 µM
  IC50: 109 nM
Second compound 0.316 µM
  IC50: < 0.999 nM
Second compound 1 µM
  IC50: < 0.999 nM
Second compound 3.16 µM
  IC50: < 0.999 nM
Second compound 10 µM
  IC50: < 0.999 nM
Second compound 0.0316 µM, first compound 0.000999 µM
  viability, T/C: 81.9%
Second compound 0.0316 µM, first compound 0.00316 µM
  viability, T/C: 86.5%
Second compound 0.0316 µM, first compound 0.00999 µM
  viability, T/C: 108%
[1]
  viability, T/C: 72.6%
Second compound 0.0316 µM, first compound 0.0999 µM
  viability, T/C: 73.5%
[3]
  viability, T/C: 54.3%
Second compound 0.1 µM, first compound 0.000999 µM
  viability, T/C: 55.7%
Second compound 0.1 µM, first compound 0.00316 µM
  viability, T/C: 64.3%
Second compound 0.1 µM, first compound 0.00999 µM
  viability, T/C: 57.6%
[7]
  viability, T/C: 55.8%
Second compound 0.1 µM, first compound 0.0999 µM
  viability, T/C: 47%
[9]
  viability, T/C: 45.4%
Second compound 0.316 µM, first compound 0.000999 µM
  viability, T/C: 54.2%
Second compound 0.316 µM, first compound 0.00316 µM
  viability, T/C: 33.7%
Second compound 0.316 µM, first compound 0.00999 µM
  viability, T/C: 44.2%
[13]
  viability, T/C: 34.7%
Second compound 0.316 µM, first compound 0.0999 µM
  viability, T/C: 40.9%
[15]
  viability, T/C: 30.8%
Second compound 1 µM, first compound 0.000999 µM
  viability, T/C: 42.6%
Second compound 1 µM, first compound 0.00316 µM
  viability, T/C: 46.7%
Second compound 1 µM, first compound 0.00999 µM
  viability, T/C: 38.9%
[19]
  viability, T/C: 34.9%
Second compound 1 µM, first compound 0.0999 µM
  viability, T/C: 33.9%
[21]
  viability, T/C: 31.2%
Second compound 3.16 µM, first compound 0.000999 µM
  viability, T/C: 40.9%
Second compound 3.16 µM, first compound 0.00316 µM
  viability, T/C: 48.6%
Second compound 3.16 µM, first compound 0.00999 µM
  viability, T/C: 41.6%
[25]
  viability, T/C: 41.7%
Second compound 3.16 µM, first compound 0.0999 µM
  viability, T/C: 29.9%
[27]
  viability, T/C: 24.6%
Second compound 10 µM, first compound 0.000999 µM
  viability, T/C: 36%
Second compound 10 µM, first compound 0.00316 µM
  viability, T/C: 40.3%
Second compound 10 µM, first compound 0.00999 µM
  viability, T/C: 44.8%
[31]
  viability, T/C: 30%
Second compound 10 µM, first compound 0.0999 µM
  viability, T/C: 38.9%
[33]
  viability, T/C: 6.92%

## O=C(NO)c1cnc(N2CCN(S(=O)(=O)c3ccc4ccccc4c3)CC2)nc1 + CN(C)c1ccc(Nc2c3ccc(NC(=O)CCN4CCCC4)cc3nc3cc(NC(=O)CCN4CCCC4)ccc23)cc1
Second compound 0.0316 µM
  IC50: 390 nM
Second compound 0.1 µM
  IC50: 475 nM
Second compound 0.316 µM
  IC50: 442 nM
Second compound 1 µM
  IC50: 448 nM
Second compound 3.16 µM
  IC50: 682 nM
Second compound 10 µM
  IC50: 689 nM
[1]
  viability, T/C: 107%
[2]
  viability, T/C: 79.2%
[3]
  viability, T/C: 50%
[4]
  viability, T/C: 41.5%
[5]
  viability, T/C: 4.18%
[6]
  viability, T/C: 0.41%
[7]
  viability, T/C: 79.9%
[8]
  viability, T/C: 96.1%
[9]
  viability, T/C: 56.6%
[10]
  viability, T/C: 29.6%
[11]
  viability, T/C: 4.22%
[12]
  viability, T/C: 0.4%
[13]
  viability, T/C: 96.5%
[14]
  viability, T/C: 75%
[15]
  viability, T/C: 60.8%
[16]
  viability, T/C: 33.4%
[17]
  viability, T/C: 4.98%
[18]
  viability, T/C: 0.4%
[19]
  viability, T/C: 76.7%
[20]
  viability, T/C: 76.6%
[21]
  viability, T/C: 54.5%
[22]
  viability, T/C: 34.5%
[23]
  viability, T/C: 3.3%
[24]
  viability, T/C: 0.44%
[25]
  viability, T/C: 88.3%
[26]
  viability, T/C: 95.7%
[27]
  viability, T/C: 80.9%
[28]
  viability, T/C: 34.3%
[29]
  viability, T/C: 4.89%
[30]
  viability, T/C: 0.4%
[31]
  viability, T/C: 101%
[32]
  viability, T/C: 85.6%
[33]
  viability, T/C: 95.3%
[34]
  viability, T/C: 29%
[35]
  viability, T/C: 5.63%
[36]
  viability, T/C: 0.55%

## C=CCn1c(=O)c2cnc(Nc3ccc(N4CCN(C)CC4)cc3)nc2n1-c1cccc(C(C)(C)O)n1 + Cc1cnc(CNC(=O)c2c(=O)c3ccc(N4CCCN(C)CC4)nc3n3c2sc2ccccc23)cn1
Second compound 0.0316 µM
  IC50: 2610 nM
Second compound 0.1 µM
  IC50: 1060 nM
Second compound 0.316 µM
  IC50: < 31.6 nM
Second compound 1 µM
  IC50: < 31.6 nM
Second compound 3.16 µM
  IC50: 828 nM
Second compound 10 µM
  IC50: < 31.6 nM
[1]
  viability, T/C: 92.1%
[2]
  viability, T/C: 70.7%
[3]
  viability, T/C: 81.6%
[4]
  viability, T/C: 78.6%
[5]
  viability, T/C: 44.3%
[6]
  viability, T/C: 28.4%
[7]
  viability, T/C: 69.1%
[8]
  viability, T/C: 60%
[9]
  viability, T/C: 55.6%
[10]
  viability, T/C: 51.5%
[11]
  viability, T/C: 23.1%
[12]
  viability, T/C: 25%
[13]
  viability, T/C: 50.9%
[14]
  viability, T/C: 42%
[15]
  viability, T/C: 32.1%
[16]
  viability, T/C: 36.4%
[17]
  viability, T/C: 41.3%
[18]
  viability, T/C: 33.8%
[19]
  viability, T/C: 42.8%
[20]
  viability, T/C: 49.4%
[21]
  viability, T/C: 39.2%
[22]
  viability, T/C: 39.4%
[23]
  viability, T/C: 47.5%
[24]
  viability, T/C: 44.1%
[25]
  viability, T/C: 56%
[26]
  viability, T/C: 49.9%
[27]
  viability, T/C: 49.5%
[28]
  viability, T/C: 41.4%
[29]
  viability, T/C: 50.5%
[30]
  viability, T/C: 53.8%
[31]
  viability, T/C: 47.7%
[32]
  viability, T/C: 36%
[33]
  viability, T/C: 45.7%
[34]
  viability, T/C: 40.8%
[35]
  viability, T/C: 40.9%
[36]
  viability, T/C: 39.1%
